In patent US9572862B2, “Methods for promoting lipolysis and oxidation in liver and adipose tissue using catestatin” (The Regents of the University of California, priority 2012, dated 2017):
No end group written: not given here.

Legend:
[1] = Plasma CST level (ELISA) after CST administration; assay type: in vivo; details: WT mice on NCD, CST 5 μg/g BW i.p./day for 12 days
Procedure: FIG. 1. Plasma parameters of wild-type (WT) and Chga-KO mice treated with saline or CST. (A) Plasma CST from saline or CST (5 μg/g BW, i.p./day) treated WT mice (28 week old) on normal chow (NCD) and high fat diet (60% fat for 16 weeks) as well as from Chga-KO mice (28 week old) on NCD. Body weights (B) and epididymal fat pad size normalized to body weight (C) in 28 week old WT and Chga-KO mice treated with saline or CST for 12 days. Plasma triglyceride (TG) (D), glycerol (E), non-esterified fatty acids (NEFA) (F), and leptin (G) in 28 week old WT and Chga-KO mice after treatment with saline or CST for 12 days. (H) Leptin in adipocyte culture media after treatment with saline or CST.
Adult male (7 month old) WT (31.8±1.2 g) and Chga-KO (39.2±1.5 g) mice in the mixed genetic background (129SvJ×C57BL/6) were studied. Both genotypes were generated from the original founder carrying mixed genotype (50% 129SvJ, 50% C57BL/6) and were maintained by sibling mating. Animals were kept in a 12 hr dark/light cycle and fed standard chow ad libitum. Male C57BL/6 mice, 8 week old, were fed 60% high fat diet (D12492: Research Diets, Inc., New Brunswick) for 16 weeks before using for experiments. […]
Mice were fasted for 12 hr prior to blood draw. […] Media from the explant cultures and mouse serum were analysed for glycerol and NEFA as a measure of lipolysis. […]

[2] = Insulin secretion in culture; assay type: cell-based
[3] = tested on: liver of Chga-KO mice; assay: Hepatic gene expression by real-time PCR after CST; assay type: in vivo; details: CST 12 days
Procedure: FIG. 4. Effects of CST on hepatic expression of genes involved in lipogenesis and fatty acid oxidation. Relative mRNA expression of genes involved in fatty acid oxidation in liver of WT and Chga-KO mice after treatment with saline or CST (5 μg/g BW, i.p./day) for 12 days: carnitine palmitoyltransferase 1a (Cpt1α) (A), peroxisome proliferator-activated receptor-alpha (Pparα) (B), acyl-CoA oxidase 1 (Acox1) (C) and uncoupling protein 2 (Ucp2) (D). (E) Relative expression of genes involved in lipogenesis in liver of Chga-KO mice after treatment with saline or CST (5 μg/g BW, i.p./day) for 12 days: sterol regulatory element-binding protein 1 (Srebp-1), peroxisome proliferator-activated receptor-gamma (Pparγ), glycerol-3-phosphate acyltransferase (Gpat4) and Cluster of Differentiation 36 (Cd36).
RNA was extracted using a kit (RNeasy Plus, Qiagen, Valencia, Calif.) according to the manufacturer's specifications. After DNase digestion, 100 ng of RNA was transcribed into cDNA in a 20-μl reaction using a High Capacity cDNA kit (Invitrogen, Carlsbad, Calif.), analyzed, and amplified. PCR was performed in a 25-μl reaction containing 5 μl of cDNA (one-fifth diluted), 2×SYBR Green PCR Master Mix, and the primers described in Table 1 (400 nM each). Differences in cycle threshold values (ΔCt) between target and the housekeeping gene GAPDH were used to calculate the levels of expression.

[4] = tested on: adipose tissue explants from DIO mice; assay: Lipolysis and fatty acid oxidation in adipose explants of DIO mice; assay type: cell-based
Procedure: FIG. 8. Lipolysis and fatty acid oxidation in the adipose tissue explants of DIO and Ob/Ob mice after treatment with saline or CST for 16 days. Explants were incubated with saline or leptin (1 μM) for 3 hr and the concentrations of glycerol (A&C) and NEFA (B&D) released into the media from DIO (A&B) and Ob/Ob (C&D) explants were determined as a measure of lipolysis. Homogenates of the explants from DIO (E) and Ob/Ob […] were used to determine their capacity for oxidation of U-^14C-palmitate in response to the treatment with saline, CST, leptin and CST+leptin. The ^14CO2 released was captured and counted as the measure of fatty acid oxidation.
Adipose tissue explants were prepared as described (42). Epididymal fat pads from 12 hr fasted WT, Chga-KO, DIO and Ob/Ob mice with or without CST treatment were collected in Kreb-Ringer-phosphate (KRP) buffer containing 10 mM Hepes and 0.5% BSA. Tissues were minced to 1-2 mm size and treated with 100 nM CST, 1 μM leptin, or saline for 30 min (for signaling analysis) or 3 hr (for lipolysis and β-oxidation assays). Explants were also treated acutely with CST, leptin, a combination, or saline. At the end, incubation media were saved for analysis of glycerol and fatty acid release. Explants were washed prior to homogenization for immunoblotting and analysis of fatty acid oxidation.
Oxidation of radiolabeled palmitate in the homogenates of adipose tissue explants as described previously (45). For oxidation studies of cultured cells, HepG2 (hepatocytes) and 3T3-L1 preadipocytes were obtained from ATCC and cultured following supplier's protocol. Confluent 3T3-L1 cultures were differentiated into adipocytes by treating with a cocktail of dexamethasone (100 nM), IBMX ([…]) and insulin (100 nM) for 10 days. Media were then switched to serum-free DMEM with 1% BSA. Hepatocytes were assayed for lipogenesis and fat oxidation in response to CST treatment. Serum-free cultures were treated with CST (100 nM) for 24 hr followed by a 2 hr incubation with U^14C-palmitate (0.5 μCi/ml). Fatty acid oxidation in cells was determined by modifying a published method (46). Specifically, the culture media in 24-well plates were acidified with 10% HClO4 after incubation with the labeled fatty acid and immediately covered with a thick filter paper sheet (cut to size) soaked in 2 N NaOH and placed underneath the plastic lid. The whole plate was sealed with parafilm. After further incubation for 2 hr, the filter paper sheet was marked as circles around the rim of the wells and then the circles were excised. The filter discs were counted to determine the amount of ^14CO2 absorbed in the papers. Cells in the culture wells were lysed in 1 N NaOH and protein content was assayed using Folin's reagent (BioRad, Hercules, Calif.).

[5] = CST in vivo 16 days, leptin 1 μM ex vivo 3 hr

## SSMKLSFRARAYGFRGPGPQL [CST]
[1]
  time plasma CST maintained at this level: at least 4 hr
[2]
  insulin secretion in culture: Stimulated Insulin Secretion in Culture in a Glucose-Independent Manner
[3]
  liver mRNA expression of Acox: augmented
  liver mRNA expression of Cd36: stimulated
  liver mRNA expression of Cpt1α: augmented
  liver mRNA expression of Gpat4: stimulated
  liver mRNA expression of Pparα: augmented
  liver mRNA expression of Pparγ: no effect
  liver mRNA expression of Srebp-1: no effect
  liver mRNA expression of Ucp2: augmented
[4]
  palmitate oxidation: neither CST nor leptin alone stimulated oxidation
[4]; [5]
  NEFA release in the media: not significant
  glycerol release in the media: can release some glycerol in the media
